# Assay results as given in patent US20240261297A1, “ANTI-CDK INHIBITORS FOR CANCER TREATMENT” (St. John's Cancer Institute, priority 2021, published 2024).
# Like-named read-outs stand apart in the source and are kept apart here.
# Columns and labels:
# [1] = In vivo safety (body weight, complete blood counts) in xenograft study; set-up: species or system mice
# Method: Anti-tumor efficacy of I-3 was evaluated in a MDA-MB-231 breast cancer xenograft model. Briefly, mice with MDA-MB-231 tumors were randomized to three treatment groups: control (Vehicle, n=8), 1-3 IV (10 mg/kg, n=8) and 1-3 PO (10 mg/kg, n=8) on a schedule of 14 days for daily (PO) or twice weekly (IV). Oral gavage treatments were formulated in 0.1% Tween 80 and 99.9% of 0.5% (w/v) of methyl cellulose in water. Intravenous treatments were formulated in 5% (v/v) DMSO, 2.5% (v/v) absolute ethanol, 2.5% (v/v) Solutol, and 90% Normal saline. Tumor growth was measured twice weekly by using a digital vernier caliper and high resolution images of tumor bearing mice were captured using a digital camera at weekly intervals of the study (Days 0, 7 and 14). Tumor volume was calculated as follows: […]
# At the end of the study, blood samples were collected from the animals for analysis of complete blood counts (CBC) using an automated hematology analyser (ADVIA2120, Siemens Ltd.). […] Once daily oral doses of 10 mg/Kg and twice weekly IV doses of 10 mg/kg were well-tolerated by the animals during the course of the treatment, with no changes in body weight or blood counts compared to vehicle control over the course of the study (Tables 14 and 15).
# CDK2/cyclin E = CDK2/cyclin E (Homo sapiens, UniProt P24941); assay: Cellular thermal shift assay (CETSA), isothermal dose response; type: binding; set-up: endogenous in cells; conditions: cell lysate, from 300 nM, 1 hour, 58° C. 20 min, Western blot
# Method: Compound 1-3 efficacy was assessed in several in vitro assays. A nanoBrET assay was used to measure intracellular kinase activity of I-3 with CDK2, CDK1, CDK7 and CDK9. Briefly, HEK293 cells were transfected with CDK2, CDK1, CDK7 and CDK9. The transfected cells were treated in duplicate with test compound I-3 (starting at 10 μM, 10-dose with 3-fold dilution) and target engagement was measured by NanoBRET assay (FIG. 2A and Table 4). Cellular thermal shift assay (CETSA) was also performed to evaluate drug target interaction in the cells. The CETSA method is built upon two concepts: cellular thermal shift and isothermal dose-response. The cellular thermal shift assay is based on the established fact that proteins that are complexed to a ligand become more resistant to heat induced unfolding. Isothermal dose response is used to determine a compound's potency in binding the target by measuring the thermal stability of the target treated with various concentrations of compound at a fixed temperature. Briefly, cell lysate was treated with I-3 (starting at 300 nM, 10-dose with 3-fold dilution) and incubated for 1 hour and cell lysates were then subjected to predetermined thermal aggregation temperature (58° C.) for another 20 min. Western blot was performed to determine the levels of target protein bound to I-3 (FIG. 2B).
# MDA-MB-231 = assay: Cell viability in breast cancer cell lines; type: cell-based; conditions: Homo sapiens; MDA-MB-231 (Mesenchymal-like), 72 hours; read-out: CTG and Alamar Blue Assay IC50
# Text: (§1) Tables 5 and 6 show assessment of in vitro efficacy of I-3 in a panel of breast cancer cell lines.
# BT-549 = assay: Cell viability in breast cancer cell lines; type: cell-based; conditions: Homo sapiens; BT-549 (Mesenchymal), 72 hours; read-out: CTG and Alamar Blue Assay IC50
# Text: as §1
# T47D = assay: Cell viability in breast cancer cell lines; type: cell-based; conditions: Homo sapiens; T47D (Ductal carcinoma), 72 hours; read-out: CTG and Alamar Blue Assay IC50
# Text: as §1
# MDA-MB-468 = assay: Cell viability in breast cancer cell lines; type: cell-based; conditions: Homo sapiens
# Text: as §1
# [2] = tested on: caspase 3/7 in PLC/PRF/5 cells; assay: Caspase Glo 3/7 activity assay in PLC/PRF/5 cells; type: cell-based
# [3] = tested on: caspase 3/7 in MDA-MB-468 cells; assay: Caspase Glo 3/7 activity assay in MDA-MB-468 cells; type: cell-based; conditions: 24 hours
# Method: Further anti-proliferative effect of 1-3 was evaluated in the TNBC cell line MDA-MB-468 based on biomarker (CDK2) inhibition. […] The mechanistic cell cycle block is aligned with biomarker. In addition, Caspase Glo 3/7 activation was tested to confirm the sub-G1 (apoptotic) arrest in cell cycle.
# [4] = tested on: MDA-MB-231 breast cancer xenograft; assay: Anti-tumor efficacy in MDA-MB-231 breast cancer xenograft model; type: in vivo, mice; conditions: p<0.0001
# Method: Anti-tumor efficacy of I-3 was evaluated in a MDA-MB-231 breast cancer xenograft model. Briefly, mice with MDA-MB-231 tumors were randomized to three treatment groups: control (Vehicle, n=8), 1-3 IV (10 mg/kg, n=8) and 1-3 PO (10 mg/kg, n=8) on a schedule of 14 days for daily (PO) or twice weekly (IV). Oral gavage treatments were formulated in 0.1% Tween 80 and 99.9% of 0.5% (w/v) of methyl cellulose in water. Intravenous treatments were formulated in 5% (v/v) DMSO, 2.5% (v/v) absolute ethanol, 2.5% (v/v) Solutol, and 90% Normal saline. Tumor growth was measured twice weekly by using a digital vernier caliper and high resolution images of tumor bearing mice were captured using a digital camera at weekly intervals of the study (Days 0, 7 and 14). Tumor volume was calculated as follows:
# Tumor Volume=[Length(L)×Width(W)^2]/2
# where length (L) is the largest diameter of the tumor and width (W) is the smallest diameter of the tumor.
compound,measurement,setting,value
"Nc1nccc(-c2c[nH]c3nccc(Oc4cccc(F)c4)c23)n1 [I-3, 4-(4-(3-fluorophenoxy)-1H-pyrrolo[2,3-b]pyridin-3-yl)pyrimidin-2-amine]","Body Weight, mean ± SE","[1]; IV 10 mg/kg, Day 0",22.1 ± 0.6 g
same,"Body Weight, mean ± SE","[1]; IV 10 mg/kg, Day 7",22.3 ± 1.0 g
same,"Body Weight, mean ± SE","[1]; IV 10 mg/kg, Day 14",22.9 ± 0.7 g
same,Hematocrit (Mean ± SE),"[1]; IV 10 mg/kg, end of study",38.4 ± 3.7%
same,Hemoglovin (Mean ± SE),"[1]; IV 10 mg/kg, end of study",12.8 ± 0.8 g/dL
same,Mean corpuscular hemoglobin (Mean ± SE),"[1]; IV 10 mg/kg, end of study",15.2 ± 0.2 pg
same,Mean corpuscular hemoglobin concentration (Mean ± SE),"[1]; IV 10 mg/kg, end of study",30.3 ± 0.2 g/dL
same,Mean corpuscular volume (Mean ± SE),"[1]; IV 10 mg/kg, end of study",50.2 ± 0.3 fL
same,Platelets (Mean ± SE),"[1]; IV 10 mg/kg, end of study",802.4 ± 107.9 10^3 cells/μL
same,Red blood cells (Mean ± SE),"[1]; IV 10 mg/kg, end of study",8.4 ± 0.5 10^6 cells/μL
same,White blood cells (Mean ± SE),"[1]; IV 10 mg/kg, end of study",22.9 ± 8.3 10^3 cells/μL
same,Tolerability,"[1]; PO 10 mg/Kg once daily and IV 10 mg/kg twice weekly, 14 days",well-tolerated
same,"Body Weight, mean ± SE","[1]; PO 10 mg/kg, Day 0",21.6 ± 0.4 g
same,"Body Weight, mean ± SE","[1]; PO 10 mg/kg, Day 7",20.9 ± 0.9 g
same,"Body Weight, mean ± SE","[1]; PO 10 mg/kg, Day 14",21.6 ± 0.9 g
same,Hematocrit (Mean ± SE),"[1]; PO 10 mg/kg, end of study",34.2 ± 0.9%
same,Hemoglovin (Mean ± SE),"[1]; PO 10 mg/kg, end of study",10.6 ± 0.3 g/dL
same,Mean corpuscular hemoglobin (Mean ± SE),"[1]; PO 10 mg/kg, end of study",15.3 ± 0.1 pg
same,Mean corpuscular hemoglobin concentration (Mean ± SE),"[1]; PO 10 mg/kg, end of study",31.1 ± 0.2 g/dL
same,Mean corpuscular volume (Mean ± SE),"[1]; PO 10 mg/kg, end of study",44.8 ± 4.1 fL
same,Platelets (Mean ± SE),"[1]; PO 10 mg/kg, end of study",762.1 ± 99.3 10^3 cells/μL
same,Red blood cells (Mean ± SE),"[1]; PO 10 mg/kg, end of study",6.9 ± 0.2 10^6 cells/μL
same,White blood cells (Mean ± SE),"[1]; PO 10 mg/kg, end of study",36.6 ± 6.8 10^3 cells/μL
same,Complete blood counts vs control group,"[1]; end of study, IV and PO 10 mg/kg",no significant differences
same,"Binding of CDK2/Cyclin E in drug target engagement methods (CETSA, NanoBRET)",CDK2/cyclin E,potent binding (nanomolar range)
same,IC50,MDA-MB-231,0.565 µM
same,IC50,BT-549,0.765 µM
same,IC50,T47D,55.5 µM
same,IC50,"MDA-MB-468; MDA-MB-468 (Basal-like 1), 72 hours, read-out: CTG and Alamar Blue Assay IC50",0.276 µM
same,IC50,"MDA-MB-468; MDA-MB-468, 72 hours, Table 6, read-out: Cell viability by CellTiter Glo IC50",0.276 µM
same,Caspase 3/7 activation (comparison),[2],greater activation of caspase 3/7 by 1-3 than by PF-06873600
same,IC50,[2]; Homo sapiens,2.45 µM
same,Caspase 3/7 activation,[3],clear activation of caspase 3/7
same,IC50,[3]; Homo sapiens,0.652 µM
same,tumor growth inhibition (TGI),"[4]; IV 10 mg/kg twice weekly, 14 days, vs control",60%
same,tumor growth inhibition (TGI),"[4]; PO 10 mg/kg once daily, end of two weeks",54%
